ChEMBL document CHEMBL1212748, “Patients with long-term oral carriage harbor high-persister mutants of Candida albicans” (2010)
In brackets after ≈: the same amount, converted by molar mass. Activity calls are given as the source filed them. The calls are words filed in the database; no cut-off is given here.

What was measured:
Candida albicans [1] = test: Antimicrobial activity against Candida albicans CAF2-1 assessed as microbial death at 10 to 100 ug/ml after 48 hrs by broth microdilution method; type: functional, organism-based
Candida albicans [2] = test: Antimicrobial activity against Candida albicans high-persister mutants assessed as microbial death at 50 ug/ml after 48 hrs by broth microdilution method; type: functional, organism-based
Candida albicans [3] = test: Antimicrobial activity against Candida albicans low-persister mutants assessed as microbial death at 10 to 100 ug/ml after 48 hrs by broth microdilution method; type: functional, organism-based
Candida albicans [4] = test: Antimicrobial activity against Candida albicans high-persister mutants assessed as microbial death at 10 to 100 ug/ml after 48 hrs by broth microdilution method; type: functional, organism-based
Candida albicans [5] = test: Antimicrobial activity against Candida albicans high-persister mutants after 48 hrs by broth microdilution method; type: functional

SMILES	Activity (Candida albicans [1])	Activity (Candida albicans [2])	Activity (Candida albicans [3])	Activity (Candida albicans [4])	MIC (Candida albicans [5]) [µg/mL]
C[C@@H]1[C@H](O)[C@@H](C)/C=C/C=C/C=C/C=C/C=C/C=C/C=C/[C@H](O[C@@H]2O[C@H](C)[C@@H](O)[C@H](N)[C@@H]2O)C[C@@H]2O[C@](O)(C[C@@H](O)C[C@@H](O)[C@H](O)CC[C@@H](O)C[C@@H](O)CC(=O)O[C@H]1C)C[C@H](O)[C@H]2C(=O)O	Active	inactive	Active	Active	
N=C(NCCCCCCNC(=N)NC(=N)Nc1ccc(Cl)cc1)NC(=N)Nc1ccc(Cl)cc1 [CHLORHEXIDINE]					1.5 (≈ 2.97 µM)
